Data set [1] has as its target rabbit isolated atrium (Oryctolagus cuniculus, UniProt P15381). Kind of data set: cell-based. The conditions noted are these: inhibition of tonic contraction; read-out: rabbit isolated atrium (pA2) (converted).
The nature of data set [2]: Pharmacokinetic studies in the conscious incannulated rat. The settings on record: in vivo, po, 50 mg/kg/os, read-out: pharmacokinetics in the rat t 1/2.
Data set [3] deals with 3H-diltiazem binding sites in the cardiac tissue (Homo sapiens, UniProt Q13936). Kind of data set: biochemical. The conditions noted are these: displacement of 3H-diltiazem, read-out: receptorial binding (pIC50) (converted). For orientation: In a radioligand displacement assay an active substance lowers the binding of a labelled ligand.
The test system of data set [4] is vasopressine-induced angina in the rat. Kind of data set: Vasopressine-induced angina in the rat. In kind it is in vivo. The conditions noted are these: for ED50: iv, read-out: angina vasopressine test rat (iv) ED50.
The conditions of data set [5]: humans; cited from earlier work.

Structures can show the parent of a compound that is named as a salt.

Chain of rabbit isolated atrium (P15381 whole entry, other chains not shown): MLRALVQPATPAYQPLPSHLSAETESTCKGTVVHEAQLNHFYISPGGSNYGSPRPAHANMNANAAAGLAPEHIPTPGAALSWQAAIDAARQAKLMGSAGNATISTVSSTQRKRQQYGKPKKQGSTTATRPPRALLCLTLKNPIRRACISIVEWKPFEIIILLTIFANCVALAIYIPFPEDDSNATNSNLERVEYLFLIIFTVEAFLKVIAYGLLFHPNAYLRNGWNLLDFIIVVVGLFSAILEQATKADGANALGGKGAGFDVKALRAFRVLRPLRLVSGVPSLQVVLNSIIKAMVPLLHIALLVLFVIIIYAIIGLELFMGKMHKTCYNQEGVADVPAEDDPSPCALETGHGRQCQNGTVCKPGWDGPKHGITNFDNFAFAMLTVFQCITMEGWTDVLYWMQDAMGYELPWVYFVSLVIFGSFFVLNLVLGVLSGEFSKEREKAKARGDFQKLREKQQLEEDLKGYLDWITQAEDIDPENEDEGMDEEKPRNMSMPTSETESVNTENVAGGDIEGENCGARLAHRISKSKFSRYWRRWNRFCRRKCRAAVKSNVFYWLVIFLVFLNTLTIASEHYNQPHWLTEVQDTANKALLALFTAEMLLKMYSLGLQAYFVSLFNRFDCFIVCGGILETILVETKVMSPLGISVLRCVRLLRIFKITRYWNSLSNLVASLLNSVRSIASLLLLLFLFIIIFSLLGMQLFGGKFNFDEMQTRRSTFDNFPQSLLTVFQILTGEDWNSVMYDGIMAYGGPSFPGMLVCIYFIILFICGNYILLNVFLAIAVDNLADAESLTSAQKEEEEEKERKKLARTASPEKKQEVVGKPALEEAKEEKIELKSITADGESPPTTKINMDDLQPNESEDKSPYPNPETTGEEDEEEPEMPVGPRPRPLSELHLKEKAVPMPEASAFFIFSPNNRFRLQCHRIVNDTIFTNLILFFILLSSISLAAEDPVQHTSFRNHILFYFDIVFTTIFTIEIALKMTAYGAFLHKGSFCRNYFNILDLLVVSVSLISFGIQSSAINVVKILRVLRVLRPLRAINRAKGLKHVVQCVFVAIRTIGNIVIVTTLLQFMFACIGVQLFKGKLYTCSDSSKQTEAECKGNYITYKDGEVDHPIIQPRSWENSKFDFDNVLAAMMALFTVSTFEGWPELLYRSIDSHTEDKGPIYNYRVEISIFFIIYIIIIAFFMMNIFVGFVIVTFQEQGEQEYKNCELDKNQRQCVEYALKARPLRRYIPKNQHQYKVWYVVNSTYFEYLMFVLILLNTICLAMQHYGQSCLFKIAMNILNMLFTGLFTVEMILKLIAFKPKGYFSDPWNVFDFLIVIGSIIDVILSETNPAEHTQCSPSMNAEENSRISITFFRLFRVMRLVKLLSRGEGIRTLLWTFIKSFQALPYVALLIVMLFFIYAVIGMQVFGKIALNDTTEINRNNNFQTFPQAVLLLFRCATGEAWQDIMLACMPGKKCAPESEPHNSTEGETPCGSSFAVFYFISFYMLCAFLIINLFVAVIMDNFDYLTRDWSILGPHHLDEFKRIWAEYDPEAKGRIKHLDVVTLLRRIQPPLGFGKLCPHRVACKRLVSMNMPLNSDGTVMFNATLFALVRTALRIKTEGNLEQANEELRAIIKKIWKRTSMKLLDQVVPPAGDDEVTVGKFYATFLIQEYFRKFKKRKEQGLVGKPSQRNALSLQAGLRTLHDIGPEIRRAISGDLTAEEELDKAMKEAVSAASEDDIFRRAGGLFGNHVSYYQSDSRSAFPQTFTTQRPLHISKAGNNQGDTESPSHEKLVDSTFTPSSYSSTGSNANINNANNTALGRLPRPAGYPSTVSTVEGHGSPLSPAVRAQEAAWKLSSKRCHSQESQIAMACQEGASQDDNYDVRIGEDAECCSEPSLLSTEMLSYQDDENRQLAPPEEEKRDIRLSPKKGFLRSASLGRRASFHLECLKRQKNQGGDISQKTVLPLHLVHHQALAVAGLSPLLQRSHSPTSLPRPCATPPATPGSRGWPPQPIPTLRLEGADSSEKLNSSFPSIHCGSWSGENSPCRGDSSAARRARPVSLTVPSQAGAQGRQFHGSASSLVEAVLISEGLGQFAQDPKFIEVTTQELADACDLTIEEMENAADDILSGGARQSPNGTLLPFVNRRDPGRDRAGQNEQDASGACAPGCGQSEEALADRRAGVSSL
Chain of rabbit isolated atrium (P13806 27-960 partner limits assumed, other chains not shown): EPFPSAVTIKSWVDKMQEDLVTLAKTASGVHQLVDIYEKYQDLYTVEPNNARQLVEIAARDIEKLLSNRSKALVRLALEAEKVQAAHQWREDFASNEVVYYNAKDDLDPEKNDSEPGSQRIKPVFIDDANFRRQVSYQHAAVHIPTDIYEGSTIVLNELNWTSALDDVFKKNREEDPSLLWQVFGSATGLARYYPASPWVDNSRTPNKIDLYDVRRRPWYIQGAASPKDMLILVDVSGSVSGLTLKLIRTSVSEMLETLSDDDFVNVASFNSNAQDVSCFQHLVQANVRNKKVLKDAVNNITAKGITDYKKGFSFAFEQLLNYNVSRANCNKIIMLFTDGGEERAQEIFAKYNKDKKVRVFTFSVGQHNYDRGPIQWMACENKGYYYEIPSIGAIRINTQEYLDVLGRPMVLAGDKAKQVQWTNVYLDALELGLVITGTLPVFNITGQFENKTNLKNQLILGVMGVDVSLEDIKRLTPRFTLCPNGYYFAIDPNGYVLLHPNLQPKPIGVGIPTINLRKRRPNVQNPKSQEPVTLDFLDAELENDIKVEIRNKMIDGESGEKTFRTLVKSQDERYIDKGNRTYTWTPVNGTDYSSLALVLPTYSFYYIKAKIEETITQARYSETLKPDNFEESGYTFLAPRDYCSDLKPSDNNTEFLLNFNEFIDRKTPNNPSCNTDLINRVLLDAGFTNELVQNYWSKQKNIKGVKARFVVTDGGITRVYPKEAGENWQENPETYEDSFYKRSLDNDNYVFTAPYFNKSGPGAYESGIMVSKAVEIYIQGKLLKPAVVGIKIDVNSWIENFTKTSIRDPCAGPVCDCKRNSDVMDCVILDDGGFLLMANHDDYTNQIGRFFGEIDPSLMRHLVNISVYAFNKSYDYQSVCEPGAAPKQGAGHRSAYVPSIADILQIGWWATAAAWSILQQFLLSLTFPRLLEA
Chain of rabbit isolated atrium (P13806 961-1106 partner limits assumed, other chains not shown): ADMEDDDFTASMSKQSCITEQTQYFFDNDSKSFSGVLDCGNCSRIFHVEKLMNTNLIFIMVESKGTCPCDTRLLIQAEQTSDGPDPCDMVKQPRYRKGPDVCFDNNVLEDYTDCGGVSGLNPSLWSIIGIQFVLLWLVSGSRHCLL

The ED50 is the dose that gives a 50% effect, or the effect in half of the subjects. In the case of `COc1ccc([C@@H]2Sc3ccccc3N(CCN(C)C(C)C)C(=O)[C@@H]2OC(C)=O)cc1` [Compound A, Cis(+)-3-acetyloxy-2,3-dihydro-5-(2-N-isopropyl-N-methylaminoethyl)-2-(4-methoxyphenyl)-1,5-benzothiazepin-4(5H)-one hydrobromide], the Kb in data set [1] is 50.1 nM. Also, in data set [2], the half-life amounted to 1.53 h. In addition, in data set [3], the IC50 was 64.6 nM. In data set [4], the “angina vasopressine test rat (iv) duration” value was 78 min and the ED50 amounted to 0.49 mg/kg.

Take `COc1ccc([C@@H]2Sc3ccccc3N(CCN(C)C)C(=O)[C@@H]2OC(C)=O)cc1` [Diltiazem, reference compound]: the elimination half-life result in data set [5] is given as “short elimination half-life”. The half-life in data set [2] worked out at 0.95 h. For the same compound, the ED50 in data set [4] turned out to be 0.45 mg/kg.

As to `COc1ccc([C@@H]2Sc3ccccc3N(CC(C)CN(C)C)C(=O)[C@@H]2OC(C)=O)cc1.O=C(O)C(=O)O` (single isomer, unassigned; diastereoisomer b) [Compound B, Cis(+)-3-acetyloxy-2,3-dihydro-5-(2-methyl-3-dimethylaminopropyl)-2-(4-methoxyphenyl)-1,5-benzothiazepin-4(5H)-one oxalate (diastereoisomer B)], the Kb in data set [1] is 63.1 nM. For the same compound, the half-life in data set [2] turned out to be 1.18 h. The IC50 in data set [3] was 30.2 nM. Also, in data set [4], the “angina vasopressine test rat (iv) duration” value was determined as 72 min and the ED50 was 0.54 mg/kg.

The values above are taken from patent publication US5571807A, “1,5 benzothiazepinone dervatives their preparation and pharmaceutical use” (Istituto Luso Farmaco d'Italia S.p.A., priority 1990, dated 1996).
